Laboratory results from patent US20250312338A1, “TREATMENT OF NEUROLOGICAL DISORDERS” (Praxis Precision Medicines, Inc., priority 2022, published 2025).
Converted amounts (≈) assume the structure as drawn. “Also recorded” adds a separate entry of the source. Where two headings read alike, the source gives them in different places.

Tests used:
healthy participants [1] = experiment: Phase 1 28-day trial (Part A 90 mg; Part B OXC + 120 mg), safety and tolerability; format: in vivo, human
Excerpt: (§2) This was a 2-part randomized, placebo-controlled Phase 1 trial in healthy participants aged 18-55 years. […] PD effects were examined on quantitative EEG (qEEG; resting and vigilant conditions) and stimulated EEG using auditory steady state response (ASSR). A total of 48 participants were enrolled; Part A, n=30; Part B, n=18.

[2] = in vivo
Excerpt: as §2

human NaV1.6 = molecular target: T1, human NaV1.6 (Homo sapiens, UniProt Q9UQD0); experiment: Peak INa use dependent block (UDB-10 Hz), PatchXpress patch clamp; format: cell-based; settings: hNaV1.6
T1 construct: HEK-293 cell lines stably expressing either human NaV1.6 (NP_055006); expressed in transfected cells
T1 sequence (Q9UQD0 whole entry): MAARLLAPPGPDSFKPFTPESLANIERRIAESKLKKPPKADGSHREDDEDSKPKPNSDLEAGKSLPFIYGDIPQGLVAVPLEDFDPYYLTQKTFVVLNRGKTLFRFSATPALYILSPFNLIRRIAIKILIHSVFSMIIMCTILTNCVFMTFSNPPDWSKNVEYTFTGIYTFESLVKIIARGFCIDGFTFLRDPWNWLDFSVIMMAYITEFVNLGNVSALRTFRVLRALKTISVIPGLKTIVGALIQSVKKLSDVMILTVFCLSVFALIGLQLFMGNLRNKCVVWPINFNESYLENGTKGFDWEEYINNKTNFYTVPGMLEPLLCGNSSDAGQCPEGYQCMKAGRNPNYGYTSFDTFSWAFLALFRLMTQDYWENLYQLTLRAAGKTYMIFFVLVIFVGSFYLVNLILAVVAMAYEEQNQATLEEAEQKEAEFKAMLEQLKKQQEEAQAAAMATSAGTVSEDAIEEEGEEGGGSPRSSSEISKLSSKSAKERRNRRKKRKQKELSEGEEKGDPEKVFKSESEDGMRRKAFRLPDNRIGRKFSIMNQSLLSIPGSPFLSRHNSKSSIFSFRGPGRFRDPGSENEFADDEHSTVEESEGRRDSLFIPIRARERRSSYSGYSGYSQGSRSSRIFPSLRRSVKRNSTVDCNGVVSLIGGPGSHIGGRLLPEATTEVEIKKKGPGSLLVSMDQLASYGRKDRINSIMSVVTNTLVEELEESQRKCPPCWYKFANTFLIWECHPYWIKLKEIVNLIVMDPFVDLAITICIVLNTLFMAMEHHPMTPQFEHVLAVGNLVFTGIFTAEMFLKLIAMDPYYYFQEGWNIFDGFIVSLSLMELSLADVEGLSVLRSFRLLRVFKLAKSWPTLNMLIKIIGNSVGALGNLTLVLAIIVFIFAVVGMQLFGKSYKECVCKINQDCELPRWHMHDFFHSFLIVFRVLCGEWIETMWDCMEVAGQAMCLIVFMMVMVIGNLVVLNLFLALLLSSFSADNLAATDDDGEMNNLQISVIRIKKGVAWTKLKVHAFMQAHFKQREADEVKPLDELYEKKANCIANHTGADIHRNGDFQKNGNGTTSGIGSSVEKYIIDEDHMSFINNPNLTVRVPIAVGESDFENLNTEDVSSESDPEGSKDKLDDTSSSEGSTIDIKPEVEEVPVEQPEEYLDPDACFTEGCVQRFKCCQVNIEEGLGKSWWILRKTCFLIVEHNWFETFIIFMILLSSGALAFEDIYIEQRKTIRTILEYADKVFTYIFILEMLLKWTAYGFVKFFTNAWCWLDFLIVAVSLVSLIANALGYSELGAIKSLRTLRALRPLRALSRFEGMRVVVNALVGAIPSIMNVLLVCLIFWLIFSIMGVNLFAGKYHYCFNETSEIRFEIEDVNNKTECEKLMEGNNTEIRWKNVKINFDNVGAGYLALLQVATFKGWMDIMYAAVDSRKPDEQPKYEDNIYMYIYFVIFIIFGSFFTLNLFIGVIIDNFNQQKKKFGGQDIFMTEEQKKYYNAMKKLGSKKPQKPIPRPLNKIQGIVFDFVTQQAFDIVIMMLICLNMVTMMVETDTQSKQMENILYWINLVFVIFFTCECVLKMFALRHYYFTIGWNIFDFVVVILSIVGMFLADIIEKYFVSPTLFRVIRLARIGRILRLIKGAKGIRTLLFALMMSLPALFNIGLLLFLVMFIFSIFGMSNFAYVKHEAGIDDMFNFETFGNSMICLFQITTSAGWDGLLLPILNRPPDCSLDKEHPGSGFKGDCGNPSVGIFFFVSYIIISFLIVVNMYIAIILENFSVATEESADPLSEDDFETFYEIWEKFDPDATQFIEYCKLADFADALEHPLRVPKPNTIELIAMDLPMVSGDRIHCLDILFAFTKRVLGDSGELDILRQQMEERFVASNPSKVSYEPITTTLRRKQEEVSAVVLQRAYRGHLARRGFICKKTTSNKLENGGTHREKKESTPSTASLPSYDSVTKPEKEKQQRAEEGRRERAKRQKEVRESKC

male CD-1 mice = experiment: Spontaneous locomotor activity (sLMA) test
Procedure: (§3) Male CD-1 mice, 6-weeks old, were obtained from Vital River (Beijing, China). The average body weight was 25-35 g at the time the experiments were carried out. The mice were housed in groups of 3-5 under controlled conditions (temperature: 20-26° C.; humidity: 40-70%; air exchange rate: 10-15 cycles/hour; 12:12 light-dark cycle with lights on at 5:00 a.m.). Food and water were available ad libitum. The mice were acclimated to these conditions for 6 days before the start of the studies.
(§4) Dosing solutions were prepared on each experiment day. […] All solutions were protected from light. Samples from dosing solutions were stored at 4° C. Both compound and vehicle were dosed at 10 ml/kg.
(§5) The sLMA test was carried out over two days. 5 of 10 mice from each treatment group were tested on each day. All animals were marked on the tail with a permanent marker and weighed. Mice were randomly assigned into one of the four treatment groups. Animals were acclimated to the test room at least 30 minutes before the start of the experiment.
(§6) Possible side effects, such as overt sedation, were recorded just before the start of the sLMA test.
(§7) Each mouse was automatically tracked with overhead cameras using a 1-minute sampling window in an isolated chamber. Spontaneous locomotor activity was then analyzed offline using the Animal Behavior Video Tracking Analysis System (Ji Liang Software Technology Co., Ltd., Shanghai, China).
(§8) Locomotor status was defined as >2 mm of movement in every 200 ms (Frame-rate recorded was 20 frames/second. Locomotor status was identified in every 4 frame-to-frame interval. The accumulated shift of tracking spots that exceeded 2 mm in every 4 frame intervals was identified as a locomotor epoch). Traveling distance was calculated automatically from all the locomotion epochs and analyzed.
(§9) All mice were anesthetized with CO2. Then, terminal plasma and brain tissue samples were collected from animals in the drug treatment groups. 500 μL whole blood was collected via cardiac puncture and placed in tubes with 10 μL EDTAK2. The tubes were then placed in wet ice until centrifuged at 2000 g for 5 minutes at 4° C. The supernatant plasma was pipetted into Eppendorf tubes.
(§10) Data are presented as mean±s.e.m., and p<0.05 was regarded as statistically significant.
(§11) Calculating TD50 and TC50 values Dose-response and concentration-response curves for plasma and brain were fitted for each end-point using GraphPad Prism. From these fitted curves, TD50 and TC50 values were calculated.
(§12) Compound 1 and CBZ were prepared individually in 35% HPBCD. […] All solutions were dosed at 10 mL/kg. Just before the start of the sLMA test, possible side effects such as overt sedation were recorde.

healthy participants [3] = experiment: Phase 1 single/multiple ascending dose and food effect trial, safety and tolerability; format: in vivo, human; settings: whole trial
Procedure: (§1) This was a 3-part Phase 1 clinical trial in healthy participants aged 18-55 years. Parts A and B were randomized, placebo-controlled and evaluated the effects of single (2.5-150 mg) and multiple (30-120 mg, 14 days QD (every day)) ascending oral doses of Compound 1, respectively. Part C was an open-label, randomized, crossover design evaluating the PK of a single oral dose (90 mg) in fasted and fed states. In Parts A (n=64) and B (n=32), participants were randomized 3:1 to Compound 1 or placebo (n=8/cohort). In Part C (n=16), participants were randomized 1:1 to one of two treatment sequences receiving a single dose of 90 mg Compound 1 in the fed (following a high-fat/high calorie meal) or fasted (>10 hours after the last, and 4 hours before the next, meal) state.

[4] = Phase 1 28-day trial (Part A 90 mg; Part B OXC + 120 mg), pharmacokinetics
Excerpt: as §2

[5] = Phase 1 single/multiple ascending dose and food effect trial, pharmacokinetics; format: in vivo, human; settings: for Tmax: human, plasma
Procedure: as §1

[6] = Open-label study in DEE patients, pharmacokinetics (preliminary data); format: in vivo, human
Excerpt: The purpose of this study is to evaluate the safety and tolerability of Compound 1, to assess the effect of Compound 1 on the frequency of motor seizures, and to characterize the pharmacokinetics (PK) of oral suspension Compound 1 in patients with developmental and epileptic encephalopathies (DEE).
This is an open-label proof of concept study with 3 cohorts of DEE patients (SCN2A, SCN8A, and Tuberous Sclerosis Complex (TSC)) between 2 years old and 17 years old. There will be an 8-week screening period followed by a 16-week treatment period comprised of 8-week dose optimization period and 8-week maintenance period, and a 4-week safety follow-up period or roll-over into LTE. The rationale for 16-week treatment period is based on the current knowledge of Compound 1 pharmacokinetics, which is predicted to potentially take about 6 weeks to achieve 90% steady state. The 8-week dose optimization period allows for adjusting concomitant SCBs and the additional 8 weeks will allow for evaluation of tolerability and efficacy signal during the maintenance period.
Dosing will be guided by preclinical data (targeting concentration between EC50 and EC90 from MES model) and modeling from adult PK data, and duration of dose optimization phase will be predicated on adult PK data. During the dose optimization period, the dose adjustment will be as follows. […]

in vivo = settings: male, CD-1, mouse
Procedure: as §3, §4, §5, §6, §7, §8, §9, §10, §11, §12

[7] = Half-life of Compound 1 as stated in dosing guidance of Example 13; settings: human, in vivo
[8] = test system: MES-induced seizures in male CD-1 mice; experiment: Maximal electroshock seizure (MES) test; format: in vivo, mouse
Procedure: Food and water were available ad libitum.
VPA was prepared in saline (Vehicle 1). All solutions were protected from light. All compounds and vehicles were dosed at 10 ml/kg.
The MES test was carried out over two days with 6 of 12 mice from each treatment group being tested on each day. Mice were brought to the test room at least one hour before the start of the experiment.
A Grass S88x (Grass Technologies of Astro-Med, Inc., West Warwick, RI) Stimulus Isolation Unit (A385, WPI Inc., USA) was set to deliver a 50 mA square-wave stimulus, with a 0.8 second duration, a pulse width of 10 msec, and a frequency of 50 Hz. A pair of custom stainless steel electrodes were soaked in 0.2% Agar, and then the subject received bilateral transauricular stimulation through ear-clip electrodes. During the stimulation, mice were manually restrained. They were then released into the observation cage for convulsion observation for 60 seconds immediately after stimulation. Each mouse was observed continuously by individuals blinded to treatment conditions and results were recorded.
Anti-seizure assessment endpoints were: (1) latency of hindlimb tonic flexion; (2) latency of hindlimb tonic extension; (3) total #hindlimb tonic flexions; (4) total #hindlimb tonic extensions; (5) latency to death; and (6) mortality rate
From these fitted curves, ED50 and EC50 values were calculated.

NC(=O)N1c2ccccc2CC(=O)c2ccccc21 [Oxcarbazepine, reference compound]
patients in whom TEAEs were observed (healthy participants [1]; Part B, per arm): 75%
exposure when administered concomitantly with Compound 1 vs alone [2]: similar

NC(=O)O[C@@H](Cn1ncnn1)c1ccccc1Cl [Cenobamate]
Ratio to Peak INa (TB) (TB / UDB-10 Hz) (human NaV1.6): 2.3

CCOC(F)(F)c1nnc2cnc(-c3cnc(OCC(F)(F)F)c(F)c3)cn12 [Compound 1]
TEAEs mild or moderate (healthy participants [1]; Part A): 100%
TEAEs moderate in severity (healthy participants [1]; Part A): 29%
tolerability in healthy adults (healthy participants [1]; Part A, 90 mg): well tolerated
TEAEs mild in severity (healthy participants [1]; Part A, 90 mg QD 28 days vs placebo, 35 TEAEs across 13 participants): 71%
review of ALT/AST increases and rhabdomyolysis (healthy participants [1]; Part B): did not identify a causal association
effect on locomotor function (male CD-1 mice; 10 mg/kg): no effect
total traveling distance in the 30-minute sLMA test (male CD-1 mice; 20 and 40 mg/kg p.o.): significantly reduced; also recorded: reductions
TC50 (free brain) Tolerability (sLMA) (male CD-1 mice; free brain concentration): 69.7 nM
TC50 in brain, free (sLMA) (male CD-1 mice; free brain concentration): 69.7 nM
TC50 in plasma, free (sLMA) (male CD-1 mice; free plasma concentration): 308.9 nM
TC50 in brain (sLMA) (male CD-1 mice; total brain concentration): 1899 ng/g
TC50 in plasma (sLMA) (male CD-1 mice; total plasma concentration): 1.553 µg/mL (≈ 3.81 µM)
TEAEs that were mild (healthy participants [3]): > 92%
increase in Compound 1 concentrations over the human-equivalent dose required for efficacy in preclinical MES models [4]: 13 fold
approach to steady state ([4]; 90 mg for 28 days): approached steady state
increase in AUC, fed vs fasted ([5]; 90 mg single dose): 14%
increase in Cmax, fed vs fasted ([5]; 90 mg single dose): 9%
Tmax ([5]; oral, 90 mg, 90 mg single dose, fasted, read-out: tmax, fasted state): 2.5 h
Tmax ([5]; oral, 90 mg, 90 mg single dose, fed, read-out: tmax, fed state): 4 h
Tmax ([5]; po, healthy adults, read-out: time to observed maximum concentration (tmax)): 2 to 3 h
exposure vs dose ([5]; over the evaluated dose range): increased dose proportionally
approach to steady state ([6]; after 28 days of once daily dosing and auto-titration): approaches steady state
Compound 1 exposures on Day 1 (after single dose) ([6]; first 12 DEE participants, preliminary): above therapeutic range; also recorded: above predicted therapeutic levels
EC50 (in vivo; plasma (free concentration), oral): 309 nM
half-life [7]: ~96 h

NC(=O)N1c2ccccc2C=Cc2ccccc21 [Carbamazepine]
sLMA at the dose required for complete seizure prevention (male CD-1 mice; mouse, in vivo): significant reduction
use-dependent block of peak INa (in words) (human NaV1.6; frequency increased to 30 Hz or 50 Hz): could be observed
use-dependent block of peak INa (in words) (human NaV1.6; stimulation frequency 10 Hz): not observed
mice protected from MES-induced tonic hindlimb seizures ([8]; 30 mg/kg): all mice
EC50 (in vivo; in vivo): 19000 nM

NC(=O)N1c2ccccc2CC(O)c2ccccc21 (stereo not shown) [10-Hydroxycarbamezapine]
exposure when administered concomitantly with Compound 1 vs alone [2]: similar

Nc1nnc(-c2cccc(Cl)c2Cl)c(N)n1 [Lamotrigine]
use-dependent block of peak INa (in words) (human NaV1.6; stimulation frequency 10 Hz): not observed
mice protected from MES-induced tonic hindlimb seizures ([8]; 10 mg/kg): eight of 12
EC50 (in vivo; in vivo): 20500 nM
